Assay results taken from patent publication US20250161307A1, “PYRAZOLOPYRIMIDINES AS MODULATORS OF SPERMINE OXIDASE” (Janssen Pharmaceutica NV, priority 2022, published 2025).
Counter-ions that a name gives are not always drawn.

Columns and labels:
SMOX [1] = target: T1, SMOX (Homo sapiens (Human), UniProt Q9NWM0); test: Human SMOX assay (HyPerBlu chemiluminescent detection of hydrogen peroxide); assay type: biochemical; conditions: 2.5 nM full length hSMOX, spermine substrate, 1 h at room temperature, luminescence read; read-out: SMOx_IC50
Procedure, shortened: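 Full-length N-His human SMOX (2.5 nM, E. coli-expressed) was incubated 1 h at room temperature with 30 µM spermine, 11-point compound dilutions and 1.25% DMSO in pH 7.4 HEPES/NaCl/EGTA buffer. H2O2 was detected by HyPerBlu chemiluminescence after 30 min, and IC50 came from dose–response fits.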

hPAOX = hPAOX (Homo sapiens (Human), UniProt Q6QHF9); test: Human PAOX assay (HyPerBlu chemiluminescent detection of hydrogen peroxide); assay type: biochemical; conditions: 60 pM recombinant PAOX, 20 μM N-acetylspermine substrate
Procedure, shortened: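 His-tagged recombinant PAOX expressed in sf9 insect cells was used at 60 pM, with 20 μM N-acetylspermine as substrate. Hydrogen peroxide formed by the reaction was detected by chemiluminescence from a boronate probe (HyPerBlu). Inhibition appears as lower luminescence.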

SMOX [2] = target: T1, SMOX; test: Cellular Thermal Shift Assay (CETSA) with alphaLISA detection of intact SMOX in A549 cells; assay type: cell-based; conditions: 1 hour compound incubation at 37° C., heated to 55° C. for 5 minutes
Text: The Cellular Thermal Shift Assay (CETSA) is a biophysical assay based on the principle of ligand-induced thermal stabilization of target proteins, meaning that a protein denaturing temperature will change upon ligand interaction. Thus, by heating samples (i.e. cells, ex vivo samples) to different temperatures, and quantifying conformationally intact proteins we can detect compound-protein interactions after compound treatment. CETSA allows direct monitoring of ligand binding to a specific target (target engagement). In our study, we have developed a suitable detection system that will detect intact SMOX using the alphaLISA. […] The detection of compound -SMOX ligand binding is performed using A549 cells. This adenocarcinoma human alveolar basal epithelial cell line expresses high levels of SMOX. Their use has been widely reported in the literature with respect to the investigation of the SMOX pathway. Using SMOX high-expressing cells with CETSA and alphaLISA systems provides the optimal platform for screening small molecules for SMOX inhibition.
A549 cells were seeded at a density of 0.05-0.1×10^6 cells/mL in T175 flasks and cultured in 25 mL of culture medium consisting in RPMI 1640 medium (Gibco) supplemented with 10% fetal bovine serum (Gibco). Cells were passaged twice per week and used for CETSA assays before reaching confluency. One day prior to the CETSA cells were seeded in 384-well white assay plates (Corning) at 15000 cells per well. Briefly, cells were washed with PBS (Life Technologies Europe BV) and dissociated by adding 2 mL TrypLE™ Select (Life Technologies Europe BV). After 5 min at 37° C., cells were resuspended in culture medium, counted using a ViCell XR cell counter (ViCell) and seeded in the 384-well plates.
Compounds were pre-diluted in PBS to a final concentration of […] and 1% DMSO and serially diluted in PBS 1% DMSO. For compound-cell incubation, medium in the 384 well plates was replaced with 30 μL of serially diluted compounds. After incubation at 37° C. for 1 hour the liquid was removed and plates were heated to 55° C. for 5 minutes and then transferred to ice for 5 minutes. After the cooling step, cells were lysed by adding 15 μL 1× alphaLISA-buffer (Perkin Elmer) containing anti-SMOX monoclonal antibody #2 and anti-SMOX Fab-fragment #33 mixture at a concentration of 5 and 0.5 nM respectively. After one hour at RT, 5 μL anti-6×His alphaLISA acceptor beads (50 mg/L, AL128C, Perkin Elmer) were added to the wells followed by an additional incubation of one hour at RT. Then 5 μL anti-rabbit IgG alpha donor beads (200 mg/L was added to the wells. After one hour incubation at RT the alpha signal was read using an alpha compatible reader. MDL75257 (M2949, Sigma) was used as positive control for compound-SMOX interaction. Compound-SMOX interaction is detected through the comparison of the high alpha signal of the negative control with the much lower signal of the wells that contain SMOX binding compounds.

T1 sequence (Q9NWM0 whole entry): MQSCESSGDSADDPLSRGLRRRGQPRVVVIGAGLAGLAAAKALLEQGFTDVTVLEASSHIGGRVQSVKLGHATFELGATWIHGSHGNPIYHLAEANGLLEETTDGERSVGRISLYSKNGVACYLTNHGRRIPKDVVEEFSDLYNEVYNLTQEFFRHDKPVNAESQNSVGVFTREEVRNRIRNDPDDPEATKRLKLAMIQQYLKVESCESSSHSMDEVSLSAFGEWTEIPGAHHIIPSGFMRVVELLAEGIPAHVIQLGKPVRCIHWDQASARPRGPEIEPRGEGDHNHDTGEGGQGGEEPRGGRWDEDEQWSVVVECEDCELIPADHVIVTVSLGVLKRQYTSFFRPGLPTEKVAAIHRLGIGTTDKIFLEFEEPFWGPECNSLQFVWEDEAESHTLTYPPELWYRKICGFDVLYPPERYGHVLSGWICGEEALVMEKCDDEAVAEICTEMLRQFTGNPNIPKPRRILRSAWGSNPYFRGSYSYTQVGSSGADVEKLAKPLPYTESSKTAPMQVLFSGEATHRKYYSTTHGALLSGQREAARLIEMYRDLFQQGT
Sequence of hPAOX (Q6QHF9 whole entry): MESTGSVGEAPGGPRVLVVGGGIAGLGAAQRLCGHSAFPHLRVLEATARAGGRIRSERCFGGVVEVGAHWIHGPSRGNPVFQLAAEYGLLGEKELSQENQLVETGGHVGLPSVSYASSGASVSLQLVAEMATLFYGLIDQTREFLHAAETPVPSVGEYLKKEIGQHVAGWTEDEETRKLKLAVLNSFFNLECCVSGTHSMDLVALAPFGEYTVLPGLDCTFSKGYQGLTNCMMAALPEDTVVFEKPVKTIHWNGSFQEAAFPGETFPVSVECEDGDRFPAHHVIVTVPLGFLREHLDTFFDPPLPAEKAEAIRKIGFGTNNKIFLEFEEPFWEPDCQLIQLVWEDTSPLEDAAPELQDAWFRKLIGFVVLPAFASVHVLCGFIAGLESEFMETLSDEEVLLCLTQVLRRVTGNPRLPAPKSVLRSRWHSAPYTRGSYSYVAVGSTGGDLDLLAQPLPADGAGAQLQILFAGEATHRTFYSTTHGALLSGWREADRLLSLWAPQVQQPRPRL

SMILES | IC50 (SMOX [1]) | IC50 (hPAOX) | SMOx % recovery CETSA (SMOX [2])
Cn1ccnc1CCCNC(=O)c1cc2nc(-c3ccccc3)cc(-c3ccccc3)n2n1 [Example 1, N-(3-(1-Methyl-1H-imidazol-2-yl)propyl)-5,7-diphenylpyrazolo[1,5-a]pyrimidine-2-carboxamide] | 46 nM | 397 nM | 12%
Cc1nccn1CCCNC(=O)c1cc2nc(-c3ccccc3)cc(-c3ccccc3)n2n1 [Example 2, N-(3-(2-Methyl-1H-imidazol-1-yl)propyl)-5,7-diphenylpyrazolo[1,5-a]pyrimidine-2-carboxamide] | 45 nM | 942 nM | 26%
O=C(NCCn1ccnc1)c1cc2nc(-c3ccccc3)cc(-c3ccccc3)n2n1 [Example 12, N-(2-(1H-Imidazol-1-yl)ethyl)-5,7-diphenylpyrazolo[1,5-a]pyrimidine-2-carboxamide] | 231 nM | 233 nM | 0%
CCN1CCC[C@@H]1CNC(=O)c1cc2nc(-c3ccccc3)cc(-c3ccccc3)n2n1 [Example 15, (R)—N-((1-Ethylpyrrolidin-2-yl)methyl)-5,7-diphenylpyrazolo[1,5-a]pyrimidine-2-carboxamide] | 192 nM | 6320 nM | 4%
CN(C)CCCNC(=O)c1cc2nc(-c3ccccc3)cc(-c3ccccc3)n2n1 [Example 18, N-(3-(Dimethylamino)propyl)-5,7-diphenylpyrazolo[1,5-a]pyrimidine-2-carboxamide] | 161 nM | 680 nM | 0%
CN1CCC(CNC(=O)c2cc3nc(-c4ccccc4)cc(-c4ccccc4)n3n2)C1 (centres unmarked) [Example 19, N-((1-Methylpyrrolidin-3-yl)methyl)-5,7-diphenylpyrazolo[1,5-a]pyrimidine-2-carboxamide] | 158 nM | 307 nM | 2%
O=C(NCC1CCc2nccn2C1)c1cc2nc(-c3ccccc3)cc(-c3ccccc3)n2n1 (centres unmarked) [Example 20, 5,7-Diphenyl-N-((5,6,7,8-tetrahydroimidazo[1,2-a]pyridin-6-yl)methyl)pyrazolo[1,5-a]pyrimidine-2-carboxamide] | 65 nM | 306 nM | 10%
CN1CCC(C)(CNC(=O)c2cc3nc(-c4ccccc4)cc(-c4ccccc4)n3n2)C1 (centres unmarked) [Example 21, N-((1,3-Dimethylpyrrolidin-3-yl)methyl)-5,7-diphenylpyrazolo[1,5-a]pyrimidine-2-carboxamide] | 117 nM | 8610 nM | 2%
CN1CC(NC(=O)c2cc3nc(-c4ccccc4)cc(-c4ccccc4)n3n2)C1 [Example 23, N-(1-Methylazetidin-3-yl)-5,7-diphenylpyrazolo[1,5-a]pyrimidine-2-carboxamide] | 49 nM | 960 nM | 52%
O=C(NCCCc1c[nH]cn1)c1cc2nc(-c3ccccc3)cc(-c3ccccc3)n2n1 [Example 27, N-(3-(1H-Imidazol-4-yl)propyl)-5,7-diphenylpyrazolo[1,5-a]pyrimidine-2-carboxamide] | 15 nM | 49 nM | 43%
O=C(NCCCn1ccnc1)c1cc2nc(-c3ccccc3)cc(-c3ccccc3)n2n1 [Example 43, N-(3-(1H-Imidazol-1-yl)propyl)-5,7-diphenylpyrazolo[1,5-a]pyrimidine-2-carboxamide] | 10 nM | 739 nM | 74%
CC(C)Nc1cc(-c2ccccc2)nc2cc(C(=O)NCCCn3ccnc3)nn12 [Example 57, N-(3-(1H-Imidazol-1-yl)propyl)-7-(isopropylamino)-5-phenylpyrazolo[1,5-a]pyrimidine-2-carboxamide] | 176 nM | 4440 nM | 1%
O=C(NCCCn1ccnc1)c1cc2nc(-c3ccccc3)cc(N3CCCCC3)n2n1 [Example 58, N-(3-(1H-Imidazol-1-yl)propyl)-5-phenyl-7-(piperidin-1-yl)pyrazolo[1,5-a]pyrimidine-2-carboxamide] | 24 nM | 6850 nM | 29%
O=C(NCCCn1ccnc1)c1cc2nc(-c3ccccc3)cc(N3CCCC(F)C3)n2n1 (centres unmarked) [Example 62, N-(3-(1H-Imidazol-1-yl)propyl)-7-(3-fluoropiperidin-1-yl)-5-phenylpyrazolo[1,5-a]pyrimidine-2-carboxamide] | 49 nM | 6040 nM | 87%
O=C(NCCCn1ccnc1)c1cc2nc(-c3ccccc3)cc(N3CCC(F)CC3)n2n1 [Example 63, N-(3-(1H-Imidazol-1-yl)propyl)-7-(4-fluoropiperidin-1-yl)-5-phenylpyrazolo[1,5-a]pyrimidine-2-carboxamide] | 241 nM | 2330 nM | 6%
CN1CC(NC(=O)c2cc3nc(-c4ccccc4)cc(N4CCCCC4)n3n2)C1 [Example 68, N-(1-methylazetidin-3-yl)-5-phenyl-7-(piperidin-1-yl)pyrazolo[1,5-a]pyrimidine-2-carboxamide trifluoroacetate] | 147 nM | 5880 nM | 39%
O=C(NCCCn1ccnc1)c1cc2nc(-c3ccccc3)cc(-c3cccc(F)c3)n2n1 [Example 78, N-(3-(1H-imidazol-1-yl)propyl)-7-(3-fluorophenyl)-5-phenylpyrazolo[1,5-a]pyrimidine-2-carboxamide] | 36 nM | 1410 nM | 0%
Cc1cccc(-c2cc(-c3ccccc3)nc3cc(C(=O)NCCCn4ccnc4)nn23)c1 [Example 81, N-(3-(1H-imidazol-1-yl)propyl)-5-phenyl-7-(m-tolyl)pyrazolo[1,5-a]pyrimidine-2-carboxamide] | 122 nM | 123 nM | 0%
O=C(NCCCn1ccnc1)c1cc2nc(-c3ccccc3)cc(-c3ccc(F)cc3)n2n1 [Example 86, N-(3-(1H-imidazol-1-yl)propyl)-7-(4-fluorophenyl)-5-phenylpyrazolo[1,5-a]pyrimidine-2-carboxamide] | 24 nM | 2190 nM | 40%
CC(CN)CNC(=O)c1cc2nc(-c3ccccc3)cc(-c3ccccc3)n2n1 (centres unmarked) [Example 120, N-(3-amino-2-methylpropyl)-5,7-diphenylpyrazolo[1,5-a]pyrimidine-2-carboxamide hydrochloride] | 582 nM | 1220 nM | 
O=C(NCC1CCNC1)c1cc2nc(-c3ccccc3)cc(-c3ccccc3)n2n1 (centres unmarked) [Example 121, 5,7-diphenyl-N-(pyrrolidin-3-ylmethyl)pyrazolo[1,5-a]pyrimidine-2-carboxamide] | 416 nM | 641 nM | 
O=C(NCCN1CCOCC1)c1cc2nc(-c3ccccc3)cc(-c3ccccc3)n2n1 [Example 122, N-(2-morpholinoethyl)-5,7-diphenylpyrazolo[1,5-a]pyrimidine-2-carboxamide] | 20600 nM | > 31200 nM | 
Cc1cc(-c2ccccc2)nc2cc(C(=O)NCCCn3ccnc3)nn12 [Example 123, N-(3-(1H-imidazol-1-yl)propyl)-7-methyl-5-phenylpyrazolo[1,5-a]pyrimidine-2-carboxamide] | 9770 nM | 4040 nM | 
